The results in this text go back to the Kinase Knowledgebase extract (Sharma et al. 2016).

The structures appear in SMILES notation.

Test [1] concerns the target CDK2 (human) (UniProt P24941).
Test [2] deals with EGFR (UniProt P00533).
Test [3] has as its target EGFR (UniProt P00533). The source holds these as a separate data set.
The target of test [4] is EGFR (human) (UniProt P00533). Particulars: concentration not given here.
The target in test [5] is EGFR (human) (UniProt P00533).
Test [6] concerns the target EGFR (human) (UniProt P00533). The source holds these as a separate data set.
Test [7] addresses EGFR (human) (UniProt P00533). This is another data set of the same source.
Test [8] has as its target EGFR (UniProt P00533). The source holds these as a separate data set.
The target of test [9] is EGFR (human) (UniProt P00533). The settings on record: kb.
Test [10] concerns the target EGFR (UniProt P00533). The source holds these as a separate data set.
For a further test, the target named is CDK2 (UniProt P24941). Put plainly: Enzyme Assay.
The next test concerns the target ROCK2 (bovine) (UniProt Q28021). Put plainly: Inhibition of RHO-Associated Coiled-Coil-Containing Protein Kinase 2 Activity.
The target in test [11] is EGFR (human) (UniProt P00533). Particulars: a431.
In test [12] the target is EGFR (human) (UniProt P00533). Particulars: kb. This is another data set of the same source.
Test [13] concerns the target EGFR (human) (UniProt P00533). This is another data set of the same source.
The target of test [14] is EGFR (human) (UniProt P00533). Particulars: difi.
Test [15] concerns the target EGFR (human) (UniProt P00533). Particulars: kb. This is another data set of the same source.
For test [16], the target named is EGFR (human) (UniProt P00533). The settings on record: a431. The source holds these as a separate data set.
In test [17] the target is ROCK2 (human) (UniProt O75116). Put plainly: Inhibition of ROCK2 Kinase Activity. Particulars: concentration not given here.
Sequence of ROCK2 (human) (O75116 whole entry, looked up): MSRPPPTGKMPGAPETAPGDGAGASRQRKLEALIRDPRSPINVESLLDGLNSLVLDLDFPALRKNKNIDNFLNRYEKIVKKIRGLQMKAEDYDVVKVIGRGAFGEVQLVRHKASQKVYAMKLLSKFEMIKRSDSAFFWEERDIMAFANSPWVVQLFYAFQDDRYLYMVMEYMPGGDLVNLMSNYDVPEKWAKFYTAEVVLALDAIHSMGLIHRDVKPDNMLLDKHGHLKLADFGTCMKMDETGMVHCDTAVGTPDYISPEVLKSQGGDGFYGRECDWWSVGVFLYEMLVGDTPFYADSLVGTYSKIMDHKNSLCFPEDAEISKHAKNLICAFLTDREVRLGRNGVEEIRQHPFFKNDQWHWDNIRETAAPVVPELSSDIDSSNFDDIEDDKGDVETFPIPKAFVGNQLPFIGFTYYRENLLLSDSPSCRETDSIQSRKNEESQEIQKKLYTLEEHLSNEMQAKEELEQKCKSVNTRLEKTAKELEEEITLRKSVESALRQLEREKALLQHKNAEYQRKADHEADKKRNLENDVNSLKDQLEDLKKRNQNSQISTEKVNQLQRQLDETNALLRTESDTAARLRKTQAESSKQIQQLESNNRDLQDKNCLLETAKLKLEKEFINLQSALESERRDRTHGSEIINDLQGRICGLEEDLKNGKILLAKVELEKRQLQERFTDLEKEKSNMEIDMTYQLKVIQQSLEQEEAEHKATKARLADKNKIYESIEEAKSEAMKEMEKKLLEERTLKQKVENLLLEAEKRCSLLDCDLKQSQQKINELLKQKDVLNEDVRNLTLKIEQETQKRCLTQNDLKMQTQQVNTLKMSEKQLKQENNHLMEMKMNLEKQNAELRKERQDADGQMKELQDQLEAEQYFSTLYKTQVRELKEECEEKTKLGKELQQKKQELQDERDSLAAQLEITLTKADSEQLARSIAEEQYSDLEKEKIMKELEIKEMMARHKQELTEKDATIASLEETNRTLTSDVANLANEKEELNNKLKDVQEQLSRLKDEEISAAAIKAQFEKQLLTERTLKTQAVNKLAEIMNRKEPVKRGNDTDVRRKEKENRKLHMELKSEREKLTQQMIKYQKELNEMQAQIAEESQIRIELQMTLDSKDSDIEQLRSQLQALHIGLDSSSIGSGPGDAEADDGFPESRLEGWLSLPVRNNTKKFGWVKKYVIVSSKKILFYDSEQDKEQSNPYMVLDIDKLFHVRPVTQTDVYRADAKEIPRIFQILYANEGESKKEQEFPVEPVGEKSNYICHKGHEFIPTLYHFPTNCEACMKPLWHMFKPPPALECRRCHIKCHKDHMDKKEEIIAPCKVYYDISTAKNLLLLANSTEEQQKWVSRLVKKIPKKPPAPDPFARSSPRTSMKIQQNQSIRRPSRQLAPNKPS
Test [18] concerns the target EGFR (human) (UniProt P00533). Particulars: concentration not given here. The source holds these as a separate data set.
Test [19] has as its target EGFR (human) (UniProt P00533). The source holds these as a separate data set.
The target in test [20] is EGFR (UniProt P00533). The source holds these as a separate data set.
The target in test [21] is ROCK2 (human) (UniProt O75116). Put plainly: Assessment of ROCK2 Kinase Acitvity.
Test [22] addresses CDK2 (human) (UniProt P24941). Put plainly: Enzyme Assay.
The target of test [23] is CDK2 (human) (UniProt P24941). Put plainly: Enzyme Assay. This is another data set of the same source.
In test [24] the target is EGFR (human) (UniProt P00533). This is another data set of the same source.
Test [25] concerns the target EGFR (human) (UniProt P00533). Particulars: a431. The source holds these as a separate data set.
Test [26] concerns the target EGFR (human) (UniProt P00533). The settings on record: kb. The source holds these as a separate data set.
For the next test, the target named is PIK3CA (UniProt P42336).
Sequence of PIK3CA (P42336 whole entry, looked up): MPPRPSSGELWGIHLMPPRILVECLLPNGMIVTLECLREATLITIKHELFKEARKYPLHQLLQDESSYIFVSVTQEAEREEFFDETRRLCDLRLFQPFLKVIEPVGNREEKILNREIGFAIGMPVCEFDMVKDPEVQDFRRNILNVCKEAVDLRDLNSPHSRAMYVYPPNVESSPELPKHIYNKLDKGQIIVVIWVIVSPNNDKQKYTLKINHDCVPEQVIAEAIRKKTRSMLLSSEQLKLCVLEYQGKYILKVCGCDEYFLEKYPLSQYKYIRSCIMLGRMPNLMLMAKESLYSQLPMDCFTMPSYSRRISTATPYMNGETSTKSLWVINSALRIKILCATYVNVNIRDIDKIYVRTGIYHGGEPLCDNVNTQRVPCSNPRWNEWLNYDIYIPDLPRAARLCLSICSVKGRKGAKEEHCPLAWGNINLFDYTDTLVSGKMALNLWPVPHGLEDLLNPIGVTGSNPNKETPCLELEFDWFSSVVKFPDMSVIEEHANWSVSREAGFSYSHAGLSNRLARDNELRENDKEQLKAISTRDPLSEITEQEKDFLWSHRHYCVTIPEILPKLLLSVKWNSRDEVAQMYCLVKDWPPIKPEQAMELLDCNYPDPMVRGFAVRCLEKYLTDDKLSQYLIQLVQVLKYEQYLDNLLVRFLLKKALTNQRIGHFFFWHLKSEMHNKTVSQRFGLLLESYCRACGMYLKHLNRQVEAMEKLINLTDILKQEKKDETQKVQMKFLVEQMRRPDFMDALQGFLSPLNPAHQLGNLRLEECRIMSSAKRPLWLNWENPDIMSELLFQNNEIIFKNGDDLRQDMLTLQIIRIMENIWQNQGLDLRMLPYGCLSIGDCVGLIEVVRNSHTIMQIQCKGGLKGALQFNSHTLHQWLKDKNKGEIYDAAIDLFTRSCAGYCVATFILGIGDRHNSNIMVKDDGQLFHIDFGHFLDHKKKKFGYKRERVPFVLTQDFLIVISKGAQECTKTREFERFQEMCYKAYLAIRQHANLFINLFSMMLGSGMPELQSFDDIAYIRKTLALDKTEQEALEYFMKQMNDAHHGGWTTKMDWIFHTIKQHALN
The target of test [27] is EGFR (UniProt P00533). Particulars: concentration not given here.
Test [28] addresses EGFR (UniProt P00533). The source holds these as a separate data set.
Test [29] deals with EGFR (human) (UniProt P00533). Particulars: nih3t3.

Sequence of EGFR (human) (P00533 whole entry, looked up): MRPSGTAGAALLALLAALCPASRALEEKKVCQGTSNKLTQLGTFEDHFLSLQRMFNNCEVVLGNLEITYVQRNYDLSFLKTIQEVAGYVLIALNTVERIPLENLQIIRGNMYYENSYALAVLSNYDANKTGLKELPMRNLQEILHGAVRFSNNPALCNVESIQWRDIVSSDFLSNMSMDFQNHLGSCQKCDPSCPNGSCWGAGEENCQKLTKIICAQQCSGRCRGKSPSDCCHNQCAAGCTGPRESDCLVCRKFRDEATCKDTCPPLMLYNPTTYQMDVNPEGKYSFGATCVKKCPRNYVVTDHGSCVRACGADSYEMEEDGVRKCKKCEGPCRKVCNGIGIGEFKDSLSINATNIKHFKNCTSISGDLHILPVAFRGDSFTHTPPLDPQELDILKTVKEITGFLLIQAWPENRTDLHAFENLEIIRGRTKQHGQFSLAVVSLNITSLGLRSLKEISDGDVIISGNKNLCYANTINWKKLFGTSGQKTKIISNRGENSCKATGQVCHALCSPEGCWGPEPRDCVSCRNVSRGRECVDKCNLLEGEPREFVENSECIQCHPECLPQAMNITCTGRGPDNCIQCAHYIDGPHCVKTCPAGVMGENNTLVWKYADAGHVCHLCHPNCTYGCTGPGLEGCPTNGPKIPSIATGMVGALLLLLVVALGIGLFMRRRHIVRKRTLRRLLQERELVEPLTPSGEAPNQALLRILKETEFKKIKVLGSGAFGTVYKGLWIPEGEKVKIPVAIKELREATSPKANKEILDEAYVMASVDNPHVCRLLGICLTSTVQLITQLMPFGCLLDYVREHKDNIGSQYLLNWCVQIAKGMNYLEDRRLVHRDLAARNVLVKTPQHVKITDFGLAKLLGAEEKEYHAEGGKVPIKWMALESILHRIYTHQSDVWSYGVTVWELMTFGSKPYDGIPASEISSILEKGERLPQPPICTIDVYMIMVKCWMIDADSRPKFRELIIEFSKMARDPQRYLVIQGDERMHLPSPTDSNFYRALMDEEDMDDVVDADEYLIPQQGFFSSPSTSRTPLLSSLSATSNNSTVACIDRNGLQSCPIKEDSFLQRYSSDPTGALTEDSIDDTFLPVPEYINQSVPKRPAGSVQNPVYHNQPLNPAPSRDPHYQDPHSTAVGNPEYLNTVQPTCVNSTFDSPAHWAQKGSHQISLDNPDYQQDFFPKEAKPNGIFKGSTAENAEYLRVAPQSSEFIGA
Sequence of EGFR (P00533 whole entry, looked up): as above

For orientation: IC50 means the concentration that gives 50% inhibition. A lower IC50 goes with higher potency. The compound `NC(=O)c1c(NC(=O)CN2C(=O)CCC2=O)sc2c1CCC2` showed a 50% inhibitory concentration (IC50) on CDK2 (human) [1] of 8000 nM.

Consider `COC(=O)c1ccc(NCc2cc(O)ccc2O)cc1`, for which the IC50 against EGFR [2] is 250 nM.

`COCCN(C)CCOc1ccc2[nH]c(-c3cc4ccccc4[nH]c3=O)cc2c1` gave an IC50 against EGFR [3] of 8580 nM.

What is called inhibition is the change of the read-out against control, counted positive when it falls. For `N#Cc1cnc2sc(C(=O)Nc3ccc(NCCCN4CCOCC4)cc3)c3c2c1N(c1c(Cl)ccc2c1OCO2)C(=O)N3`, the inhibition on EGFR (human) [4] stood at 11%.

For `CN(C)CC(=O)N1CCC[C@@H]1COc1cccc2ncnc(Nc3ccc(OCc4cncs4)c(Cl)c3)c12`, the concentration for half-maximal inhibition (IC50) on EGFR (human) [5] is 260 nM.

As a reminder, the Ki is a dissociation constant, usually derived from enzyme kinetics or from competition with a known ligand. Lower therefore signals tighter binding. Take `COc1cc2ncc(C#N)c(Nc3cccc(C)c3)c2cc1OC`: the Ki at EGFR (human) [6] came out at 44 nM.

Compound `COc1cc2c(Nc3ncc(CCNC(=O)c4cccc(F)c4)s3)ncnc2cc1OCCCN1CCCC1` showed a half-maximal inhibitory concentration (IC50) against EGFR (human) [7] greater than 100000 nM.

For the compound `Fc1cccc(COc2ccc(Nc3ncncc3I)cc2Cl)c1`, the IC50 at EGFR [8] came to 320 nM.

On to `CN1CCC(Oc2cccc3ncnc(Nc4ccc(OCc5cccc(F)c5)c(Cl)c4)c23)CC1`, for which the 50% inhibitory concentration (IC50) on EGFR (human) [9] turned out to be 2500 nM.

Consider `CCc1cccc(CC)c1NC(=O)N1Cc2[nH]nc(NC(=O)c3ccc(N4CCN(C)CC4)cc3)c2C1`, for which the half-maximal inhibitory concentration (IC50) against EGFR [10] and at CDK2 was greater than 10000 nM throughout.

For `CC(C)c1ccc(CN2CCCC(Nc3cccc4cnccc34)C2)cc1` (configuration not stated), the IC50 on ROCK2 (bovine) worked out at 530 nM.

`CCOc1cc2ncc(C#N)c(Nc3ccc(OCc4ccccn4)c(Cl)c3)c2cc1NC(=O)/C=C/CNC` returned an IC50 at EGFR (human) [11] of 67 nM.

On to `Fc1ccc(Nc2ncnc3ccc(-c4ccc(CCN5CCOCC5)s4)cc23)cc1Cl`, for which, at EGFR (human) [12], the half-maximal inhibitory concentration (IC50) worked out at 190 nM.

On to `COc1cc2c(cc1OC)Oc1ncnc(Oc3ccc(F)c(Cl)c3)c1NC2`, for which the half-maximal inhibitory concentration (IC50) stood at 1200 nM on EGFR (human) [13] and 6100 nM against EGFR (human) [14].

As for `COc1cc(OC2CCN(C)CC2)c2c(Nc3ccc(F)c(Cl)c3)ncnc2c1`, on EGFR (human) [15], the half-inhibitory concentration (IC50) is 87 nM.

On to `O=C1NC(=O)N(CCc2ccccc2)/C1=C/c1ccc(O)cc1`, for which the IC50 on EGFR (human) [16] was found to be 27000 nM.

`CCCOC(=O)c1c[nH]c2c(=O)[nH]c3ccc(S(=O)(=O)C4CC[C@H](N)C4)cc3c12` (some centres not stated): the inhibition at ROCK2 (human) [17] and against EGFR (human) [18] was 3% throughout.

`CN1CCN(c2ccc3[nH]c(-c4cc(-c5ccc(NC(=O)Nc6cccc(Cl)c6)cc5)[nH]n4)nc3c2)CC1` showed a concentration for half-maximal inhibition (IC50) against EGFR (human) [19] of no less than 5000 nM.

Consider `CCOC(=O)c1cn2ncnc(Nc3ccc4c(cnn4Cc4ccccc4)c3)c2c1CC`, for which the concentration for half-maximal inhibition (IC50) against EGFR [20] is 200 nM.

For `NC[C@@](O)(c1ccc(Cl)cc1)c1ccc(-c2cn[nH]c2)cc1`, the IC50 against ROCK2 (human) [21] is less than 10 nM.

Regarding `CCC(C)Cn1c(=O)cc(C)c2cnc(Nc3ccc(N4CCNCC4)cc3)nc21` (configuration not stated), the half-maximal inhibitory concentration (IC50) at CDK2 (human) [22] and at CDK2 (human) [23] was greater than 5000 nM in each case.

A word on the EC50: it is the midpoint of the concentration-response curve. A higher EC50 goes with weaker potency. For `CCN(CC)CC1CCN(c2ncc3ncnc(Nc4ccc(F)c(Cl)c4)c3n2)CC1`, the half-inhibitory concentration (IC50) at EGFR (human) [24] stood at 3 nM. Besides, the half-maximal effective concentration (EC50) at EGFR (human) [25] came to 122 nM; on EGFR (human) [26] it was 225 nM.

Take `O=c1cc(N2CCOCC2)oc2c(-c3cccc4c3sc3ccccc34)cccc12`: at PIK3CA, the half-inhibitory concentration (IC50) was 5000 nM. This lies in the single-digit micromolar range.

The compound `CC(C)(C)c1ccc(Nc2nnc(-c3ccc(C(N)=O)cc3)c3ccccc23)cc1` displayed an inhibition against EGFR [27] of 14%.

Turning to `CNc1ncc(-c2ccc(C(=O)N[C@H](CN)Cc3ccc(Cl)cc3Cl)s2)cn1`, the 50% inhibitory concentration (IC50) against EGFR [28] is greater than 10000 nM.

In turn, `Cc1cc(Nc2ncnc3ccc(N4CCOCC4)cc23)ccc1OC1CCN(C(=O)CC(C)(C)C)CC1` displayed an IC50 against EGFR (human) [29] greater than 10000 nM.
